Measured values: PMC1345695 (Nucleic Acids Research, 2006)

Target: wt tetrameric Lac repressor (tet. LacR) (Escherichia coli, UniProt P03023)
Experiment: band shift of operator DNA, IPTG titration, non-linear regression
Format: binding

Chain of wt tetrameric Lac repressor (tet. LacR) (P03023 whole entry): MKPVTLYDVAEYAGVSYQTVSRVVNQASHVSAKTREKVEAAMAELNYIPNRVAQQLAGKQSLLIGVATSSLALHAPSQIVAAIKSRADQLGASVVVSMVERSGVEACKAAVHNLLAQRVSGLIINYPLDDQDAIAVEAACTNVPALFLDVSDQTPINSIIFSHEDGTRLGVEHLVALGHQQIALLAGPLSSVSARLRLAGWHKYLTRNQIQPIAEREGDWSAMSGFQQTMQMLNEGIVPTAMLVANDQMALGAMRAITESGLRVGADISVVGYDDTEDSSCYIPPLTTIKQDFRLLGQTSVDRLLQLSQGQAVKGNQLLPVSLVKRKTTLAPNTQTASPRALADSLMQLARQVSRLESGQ

Q: For `CC(C)S[C@@H]1O[C@H](CO)[C@H](O)[C@H](O)[C@H]1O` [IPTG], which Kd is on record?
A: 8.2 µM
